Tested on: WistarF/Han (WF) rats
Assay: 1h food intake with Y1R antagonist pre-treatment (Example 4)
Format: in vivo
Details: i.c.v., isoleucyl thiazolidine 50nmol, Fig. 11
Protocol: Animals. Male WistarF/Han (WF) rats (Central Animal Laboratory, Hannover Medical School, Hannover, Germany, see http://www.mh-hannover.de/institut/tierlabor/wf.htm for details), weighing 330±31 g±SD, were housed in a sound-proof, temperature controlled (24.0±0.5°C) room under specific pathogen free conditions with a 12/12h dark/light cycle (lights on at 07.00 with illumination level of 80 Lux). Food (Altromin lab chow pellets) and tap water were available ad libitum. Under ketamine/xylasine (100/5 mg/kg, i.p.) anesthesia, the rats were fixed in a Kopf stereotaxic frame and implanted with cannulae (Plastic One, Inc., Roanoke, VA, USA) above the lateral ventricle. All research and animal care procedures were approved by the Lower Saxony district government (Hannover, Germany) and followed principles described in the European Community's Council Directive of 24 November 1986 (86/609/EEC).
Surgery and i.c.v. application. For surgery, rats were anesthetized and prepared with i.c.v. cannulae (coordinates: A:-0.7mm caudal, L:1.4mm lateral to bregma; and V3.2mm ventral to the skull surface; tooth bar +3.0 above ear bars) using standard stereotaxic procedures as described in detail elsewhere (von Hörsten et al., 1998a,b,c). After a 7-day recovery period, successful ventricle cannulation was confirmed by an angiotensin drinking response (von Hörsten et al., 1998a). Rats showing a positive drinking response (n=56) were then habituated to experimental handling by daily sham injections for seven days.
Animals were randomly divided into eight experimental groups (n=6-8/group), which completed one SI test of anxiety: (1) aCSF+aCSF+aCSF; (2) BIBP+aCSF+aCSF; (3) aCSF+isoleucyl thiazolidine+aCSF; (4) BIBP+isoleucyl thiazolidine+aCSF; (5) aCSF+aCSF+NPY; (6) BIBP+aCSF+NPY; (7) aCSF+P32/89+NPY; (8) BIBP+isoleucyl thiazolidine+NPY. Animals in each group were treated in an identical way in each phase, receiving i.c.v. injections -60mins and -55min before behavioral testing. Experiments spanned two nights with groups counterbalances on both dark cycles. The injection cannula was attached to a Hamilton microsyringe with approximately 30cm of polyethylene tubing and all compounds were infused in a total volume of 5.0µl at a rate of 5.0 µl/min using a TSE multichannel infusion pump (Bad Homburg, Germany). The time spent in active social interaction (SI-time), 1h, and 12h food-intake were measured.
Peptides and Antagonist. Rat neuropeptide Y1-36 was obtained from Polypeptide Laboratories (Wolfenbüttel, Germany). The NPY Y1 receptor antagonist BIBP3226 was purchased from American Peptide Company, Sunnyvale, CA, USA (Cat#:60-1-22B). […]
Statistical analysis. Data obtained from the measures SI time and 1h food intake were analyzed by one-way (factor: "treatment") ANOVA. […]

SMILES: CCC(C)C(N)C(=O)N1CCSC1 (centres unmarked) [isoleucyl thiazolidine]
- 1h feeding under Y1R blockade (BIBP3226 100nmol pre-treatment, NPY 0.8nmol): blocked
- 1h food-intake (without antagonist): non-significant slight increase

— patent publication EP1891948A1, “Treatment of neurological and neuropsychological disorders” (Probiodrug AG, priority 2000, dated 2002)
